In patent US10278956B1, “Use of intravenous melatonin in patients with ST-elevation myocardial infarction” (priority 2018, dated 2019):
“Also recorded” adds a separate entry of the source.

Experiments:
STEMI-patients = assay: Pilot randomized, double-blinded, placebo controlled study of intravenous melatonin before pPCI; infarct size by CMR; type: in vivo, human
Procedure: This pilot study is a prospective, randomized, double-blinded, placebo controlled study of consecutive patients admitted with a STEMI. Additional inclusion criteria were presented within 6 hours of chest pain onset and occlusion of culprit artery with TIMI basal flow grade 0 to 1. Patients randomised to intravenous melatonin received a dose of 12 mg (51.7 μmol, in saline solution, in a volume of 50 ml in an opaque syringe) given by a time period of 60 minutes starting immediately before primary percutaneous coronary intervention (pPCI), by via a catheter positioned within a peripheral vein. The control group received a matching intravenous placebo formulation.
A total of 31 patients were enrolled. Groups were well balanced for age, gender, and cardiovascular risk factors. No significant differences were observed between groups concerning baseline clinical and angiographic characteristics. Randomized patients were divided in 2 groups: Group 1 (patients with ischemia duration 3 hours) and Group 2 (patients with ischemia duration >3 hours). Group 1 there had 17 patients (8 treated with melatonin and 9 with placebo) and in the group 2 there were 14 patients (6 treated with melatonin and 8 with placebo).
Myocardial infarct size was calculated as percentage of left ventricular mass by cardiovascular magnetic resonance (CMR).

[1] = test system: patients with ST-segment elevation myocardial infarction (STEMI); settings: earlier published trial; cited from earlier work
[2] = test system: closed-chest porcine model; settings: combined intracoronary and intravenous treatment; cited from earlier work
[3] = Group 1 (≤3 hours ischemia duration), 12 mg intravenous over 60 min starting immediately before pPCI, CMR, *P < 0.01 vs Placebo
[4] = Group 2 (>3 hours ischemia duration), 12 mg intravenous over 60 min starting immediately before pPCI, CMR

SMILES: COc1ccc2[nH]cc(CCNC(C)=O)c2c1 [Melatonin, melatonin]
- Infarct size (g) (STEMI-patients; [3]): 16.53 ± 7.28* g
- Infarct size (proportion of left ventricular mass) % (STEMI-patients; [3]): 17.71 ± 7.55* %
- Infarct size (STEMI-patients; [4]): 25.69 ± 7.34 g
- Infarct size (proportion of left ventricular mass) % (STEMI-patients; [4]): 20.62 ± 5.37%
- Myocardial infarct size compared with placebo (STEMI-patients; intravenous, given within 3 hours or less after symptom onset (group 1)): significantly reduces myocardial infarct size; also recorded: significantly smaller
- Effect on myocardial infarct size compared with placebo (STEMI-patients; time from symptom onset to melatonin administration longer than 3 hours): significantly reduced or even opposite effect
- Effect on ventricular volumes and LVEF evolution [1]: unfavorable effect
- Myocardial infarct size (MIS) compared with placebo [1]: failed to reduce myocardial infarct size
- Myocardial reperfusion injury [2]: did not reduce myocardial reperfusion injury
